{"source": "patent US7833795B2", "about": "“Assessment of cardiovascular risk using isoprostane biomarkers and COX-2 selective inhibitors” (The Trustees of the University of Pennsylvania, priority 2004, dated 2010)", "assay_type_in_all_cases": "in vivo, rat", "key": {"Male Fisher 344 rats [1]": {"test_system": "Male Fisher 344 rats", "test": "Urinary free 8-iso-PGF2α by radioimmunoassay", "conditions": "both doses of CCl4, 7 h", "method": "(§1) Animals and treatment protocol: Male Fisher 344 rats (260-280 g) obtained from Charles River Laboratories (Raleigh, N.C.) were used in all experiments. The animals were housed three to a cage. Autoclaved hardwood bedding was used in solid-bottom polycarbonate cages with filter tops. Animal rooms were maintained at 20-25° C. with 35-70% relative humidity with alternating 12-hour light and dark cycles. The rats had free access to deionized, reverse-osmosis-treated water and received autoclaved NIH 31 rodent chow (Zeigler Bros., Gardners, Pa.) ad libitum. For all experiments, rats were fasted overnight and then administered intraperitoneal injections of carbon tetrachloride in canola oil. Control rats received an equal volume of canola oil. Fasting continued throughout the experiment. Rats were anesthetized with Nembutal (0.1 ml/100 g body weight) and 5 ml blood was removed from the dorsal aorta proximal to its bifurcation into the common iliac arteries.\n(§2) Meclofenamic acid pretreatment: Meclofenamic acid was injected at a dose of 5 mg/kg i.p. 12 h and 2 h prior to the injection of CCl4.\nCarbon tetrachloride (CCL4) treatment: Animals from each of the three dose groups (Control-canola oil, 120 mg/kg CCl4 i.p. and 1200 mg/kg CCl4 i.p.) were investigated at three time points (2, 7, and 16 hours after CCl4 injection). Indomethacin-pretreated rats were also investigated at the same three time points, and the meclofenamic acid-pretreated rats were investigated at one time point (7 hours). Each group consisted of five rats for each analysis, except the meclofenamic acid pretreatment group which consisted of six rats. Animal treatment, sample preparation, assessment of liver histology and serum enzyme activities are described elsewhere (Kadiiska et al., 2000, Free Radic. Biol. Med. 28: 838-845; Jackson, 1989, J. Pharmacol. Exp. Ther. 250: 9-21) and were carried out at NIEHS, Research Triangle Park, N.C. […]\nIn Experimental Example 2, urine samples were also analyzed for free 8-iso-PGF2α, without any extraction, by radioimmunoassay (Basu, 1998, Prost. Leuk. Ess. Fatty Acids. 58: 319-325). […]"}, "Male Fisher 344 rats [2]": {"test_system": "Male Fisher 344 rats", "test": "Plasma protein-bound 3-nitrotyrosine (HPLC-EC)", "method": "as §1\n(§3) Carbon tetrachloride (CCL4) treatment: Animals from each of the three dose groups (Control-canola oil, 120 mg/kg CCl4 i.p. and 1200 mg/kg CCl4 i.p.) were investigated at three time points (2, 7, and 16 hours after CCl4 injection). Indomethacin-pretreated rats were also investigated at the same three time points, and the meclofenamic acid-pretreated rats were investigated at one time point (7 hours). Each group consisted of five rats for each analysis, except the meclofenamic acid pretreatment group which consisted of six rats. Animal treatment, sample preparation, assessment of liver histology and serum enzyme activities are described elsewhere (Kadiiska et al., 2000, Free Radic. Biol. Med. 28: 838-845; Jackson, 1989, J. Pharmacol. Exp. Ther. 250: 9-21) and were carried out at NIEHS, Research Triangle Park, N.C.\nPlasma sample preparation: Blood (5 ml) was drawn through single draw Vacutainer® needles (21 Gauge) into open Vacutainer® blood collection tubes containing heparin. The tubes were gently inverted 2-3 times for mixing and immediately placed on ice. Blood was centrifuged (2,000 rpm for 10 minutes at 4° C.) no more than 30 minutes after collection, and the plasma was collected, frozen on dry ice and stored at −70° C.\nDetermination of tyrosine products employed a method of sample preparation wherein tyrosine analogs were enzymatically hydrolyzed from protein without the need for sample extraction, concentration or derivatization (Henley et al., 1997, Analytical Biochem. 251: 187-195). High performance liquid chromatography was applied in conjunction with coulometric electrochemical array (HPLC-EC) detection to allow ultrasensitive determination of protein-bound 3-nitrotyrosine and 3,4-dihydroxyphenylalanine (3-hydroxytyrosine) as specific in situ biomarkers of protein exposure to reactive nitrating or oxidizing species (Henley et al., 1997, Analytical Biochem. 251: 187-195). Tyrosine and derivatives were analyzed simultaneously, with practical detection limits for tyrosine, 3-nitrotyrosine, and 3,4-Dopa being 10, 50 and 2 pmol respectively, in as little as 20 μL of sample. The measurements were conducted at the Oklahoma Medical Research Foundation (OMRF), Oklahoma City, Okla."}, "Male Fisher 344 rats [3]": {"test_system": "Male Fisher 344 rats", "test": "Liver enzyme activities, histopathology and other clinical parameters after CCl4", "conditions": "CCl4 120 and 1200 mg/kg; 2, 7, 16 h", "method": "as §1, with “Rats were anesthetized with Nembutal (0.1 ml/100 g body weight) and 5 ml blood was removed from the dorsal aorta proximal to its bifurcation into the common iliac arteries.” left out\nSerum enzyme activities of lactic acid dehydrogenase (LDH), alanine aminotransferase (ALT), alkaline phosphatase (ALP), aspartate aminotransferase (AST), sorbitol dehydrogenase (SDH), 5′-nucleotidase (5′-NT), serum concentration of total bile acids (TBA), and liver histopathology were performed, as described (Kadiiska et al., 2000, Free Radic. Biol. Med. 28:838-845). In addition, other clinical parameters such as serum albumin, total protein, total iron, total iron binding capacity, nitrite/nitrate, and urinary creatinine were determined, using standard techniques known to those in the art."}, "Male Fisher 344 rats [4]": {"test_system": "Male Fisher 344 rats", "test": "Urinary free plus esterified 8-iso-PGF2α by immunoassay", "conditions": "for Free plus esterified 8-iso PGF2a (by immunoassay): urine", "method": "as §1\nIndomethacin pretreatment: The indomethacin regimen used has been previously shown to inhibit COX activity in rats by 90% (dose of 5 mg/kg s.c. 24 hours, 12 hours, and 2 hours prior to the injection of CCl4) (Jackson, 1989, J. Pharmacol. Exp. Ther. 250: 9-21). An additional booster dose was injected 8 hours after the last injection of CCl4 for the measurements performed 16 hours after treatment with CCl4.\nas §2, §3\nUrine sample preparation: The day prior to treatment, both experimental and control animals were placed in stainless steel metabolic cages especially designed for urine collection. For Experimental Example 2, animals were placed in metabolic cages immediately after the last injection of indomethacin or meclofenamic acid. Urine was collected (in dark vials) from the animals during the following intervals: 2 to 7 hours and 7 to 16 hours after CCl4 or canola oil (controls) treatment. Urine samples from indomethacin-pretreated rats were collected from 2 to 7 hours and 7 to 16 hours after the injection of CCl4, whereas samples from meclofenamic-acid-pretreated rats were collected only from 2 to 7 hours after the injection. All urine samples were immediately frozen on dry ice and stored at −70° C.\nUrinary 8-iso-PGF2α concentrations were measured by the competitive immunoassay procedure in which 8-iso-PGF2α conjugated to alkaline phosphatase competed with the test analyte for antibody specific for the isoprostane. The anti-8-iso-PGF2α antibody was captured by anti-Fc antibodies immobilized on a microtiter plate. The assay was developed by Assay Designs, Inc., Ann Arbor, Mich. and performed at OXIS Research, Portland, Oreg.\nIn an additional method not recited in Example 1, an immunoassay was used to measure the sum of free plus esterified 8-iso-PGF2α. The immunoassay used anti-8-iso-PGF2α antibody was developed by Assay Designs, Inc., Ann Arbor, Mich., and performed at Oxis Research, Portland, Oreg."}}}
{"compound": "ClC(Cl)(Cl)Cl", "note": "[CCl4, Carbon tetrachloride]", "values": [{"measurement": "urinary free 8-iso-PGF2α (radioimmunoassay)", "setting": "Male Fisher 344 rats [1]", "result": "dose-dependent increase"}, {"measurement": "3-Nitrotyrosine, bound", "setting": "Male Fisher 344 rats [2]; CCl4 120 mg/kg i.p., 2 h", "result": 0.24, "unit": "µM"}, {"measurement": "3-Nitrotyrosine, bound", "setting": "Male Fisher 344 rats [2]; CCl4 120 mg/kg i.p., 7 h", "result": 0.39, "unit": "µM"}, {"measurement": "3-Nitrotyrosine, bound", "setting": "Male Fisher 344 rats [2]; CCl4 120 mg/kg i.p., 16 h", "result": 0.43, "unit": "µM"}, {"measurement": "3-Nitrotyrosine, bound", "setting": "Male Fisher 344 rats [2]; CCl4 1200 mg/kg i.p., 2 h", "result": 0.26, "unit": "µM"}, {"measurement": "3-Nitrotyrosine, bound", "setting": "Male Fisher 344 rats [2]; CCl4 1200 mg/kg i.p., 7 h", "result": 0.42, "unit": "µM"}, {"measurement": "3-Nitrotyrosine, bound", "setting": "Male Fisher 344 rats [2]; CCl4 1200 mg/kg i.p., 16 h", "result": 0.38, "unit": "µM"}, {"measurement": "plasma iron concentrations and total iron binding capacity", "setting": "Male Fisher 344 rats [3]", "result": "significantly increased only at the high dose at 16 hours"}, {"measurement": "plasma nitrite/nitrate levels", "setting": "Male Fisher 344 rats [3]", "result": "significantly increased only at the high dose at all three time points"}, {"measurement": "Free plus esterified 8-iso PGF2a (by immunoassay)", "setting": "Male Fisher 344 rats [4]; CCl4 120 mg/kg i.p., 7 h", "result": 25.7, "unit": "ng/mgcreatinine"}, {"measurement": "Free plus esterified 8-iso PGF2a (by immunoassay)", "setting": "Male Fisher 344 rats [4]; CCl4 120 mg/kg i.p., 16 h", "result": 17.4, "unit": "ng/mgcreatinine"}, {"measurement": "Free plus esterified 8-iso PGF2a (by immunoassay)", "setting": "Male Fisher 344 rats [4]; CCl4 1200 mg/kg i.p., 7 h", "result": 57.0, "unit": "ng/mgcreatinine"}, {"measurement": "Free plus esterified 8-iso PGF2a (by immunoassay)", "setting": "Male Fisher 344 rats [4]; CCl4 1200 mg/kg i.p., 16 h", "result": 30.4, "unit": "ng/mgcreatinine"}, {"measurement": "increase of urinary 8-iso-PGF2α (immunoassay)", "setting": "Male Fisher 344 rats [4]; high dose CCl4, 7 h", "result": 10, "unit": "fold"}, {"measurement": "increase of urinary 8-iso-PGF2α (immunoassay)", "setting": "Male Fisher 344 rats [4]; high dose CCl4, 16 h", "result": 6, "unit": "fold"}]}
